From the SangsterLogP compilation come the findings set out here.

Structures are written as SMILES.

The nature of this data set: method code SF-AS, from DOI: 10.1007/bf00500963, PMID: 600309.
`Cc1cc(C)c(N=C2NCCN2)c(Cl)c1` returned a logP of 2.1.
`Cc1cc(Cl)cc(Cl)c1N=C1NCCN1` registered a logP of 2.38.
`Clc1cccc(Cl)c1N=C1NCCN1` displayed a lipophilicity (logP) of 1.59.
To `Fc1cccc(Cl)c1N=C1NCCN1` belongs 1.45; to `Cc1ccc(N=C2NCCN2)c(C)c1`, 1.78.
As to `Clc1ccc(Cl)c(N=C2NCCN2)c1`, the logP was determined as 2.04.
To `Cc1cc(Br)cc(C)c1N=C1NCCN1` belongs 2.8; to `CCc1cccc(CC)c1N=C1NCCN1`, 2.6; to `Brc1cc(Br)c(N=C2NCCN2)c(Br)c1`, 2.74.
For the molecule `COc1cc(Cl)c(N=C2NCCN2)c(Cl)c1`, the logP was 1.6.
On to `Cc1ccccc1N=C1NCCN1`, for which the logP was found to be 1.28.
Molecule `Clc1cc(Br)cc(Cl)c1N=C1NCCN1` yielded a logP of 2.66.
The figure for `Clc1ccccc1N=C1NCCN1` is 1.36.
To `Cc1cc(Cl)cc(C)c1N=C1NCCN1` belongs 2.5; to `O=[N+]([O-])c1cc(Cl)c(N=C2NCCN2)c(Cl)c1`, 2.1; to `Cc1cc(C)c(N=C2NCCN2)c(C)c1`, 2.32.
`Clc1cccc(Br)c1N=C1NCCN1` yielded a logP of 1.73.
Molecule `Clc1cccc(NC2=NCCN2)c1Cl` came in with a logP of 2.01.
To `Cc1cc(Cl)c(NC2=NCCN2)c(Cl)c1` belongs 1.92.

Broadly, the logP is the decadic logarithm of the partition coefficient of the neutral form, usually between octanol and water. Read a low logP as lower lipophilicity.
